The subject of experiment [1] is UGT1A1. In words: RNA-seq of UGT1A1 expression in compound-treated primary human hepatocytes. It counts as cell-based. As to the method:
(§1) Human hepatocytes were obtained from two donors from Massachusetts General Hospital, namely MGH54 and MGH63, and one donor from Lonza, namely HUM4111B. Cryopreserved hepatocytes were cultured in plating media for 16 hours, transferred to maintenance media for 4 hours. Cultured on serum-free media for 2 hours, then a compound was added. The hepatocytes were maintained on the serum-free media for 16 hours prior to gene expression analysis. Primary human hepatocytes were stored in the vapor phase of a liquid nitrogen freezer (about −130° C.).
(§2) Human hepatocytes cultured as described above were plated in 24-well format, adding 375,000 cells per well in a volume of 500 ul plating medium. Four hours before treatment, cells were washed with PBS and the medium was changed to either: fresh maintenance medium (complete) or modified maintenance medium.
(§3) Compound stocks were prepared at 1000× final concentration and added in a 2-step dilution to the medium to reduce risk of a compound precipitating out of solution when added to the cells, and to ensure reasonable pipetting volumes. One at a time, each compound was first diluted 10-fold in warm (about 37° C.) modified maintenance medium (initial dilution=ID), mixed by vortexing, and the ID was diluted 100-fold into the cell culture (e.g. 5.1 ul into 1 well of a 24-well plate containing 0.5 mL medium). The plate was mixed by carefully swirling and after all wells were treated and returned to the incubator overnight. If desired, separate plates/wells were treated with vehicle-only controls and/or positive controls. If using multi-well plates, controls were included on each plate. After about 18 hours, cells were harvested for further analysis, e.g., ChIP-seq, RNA-seq, ATAC-seq, etc.
(§4) This protocol is a modified version of the following protocols: MagMAX mirVana Total RNA Isolation Kit User Guide (Applied Biosystems #MAN0011131 Rev B.0), NEBNext Poly(A) mRNA Magnetic Isolation Module (E7490), and NEBNext Ultra Directional RNA Library Prep Kit for Illumina (E7420) (New England Biosystems #E74901).
(§5) The MagMAX mirVana kit instructions (the section titled “Isolate RNA from cells” on pages 14-17) were used for isolation of total RNA from cells in culture. Two hundred μl of Lysis Binding Mix was used per well of the multiwell plate containing adherent cells (usually a 24-well plate).
(§6) For mRNA isolation and library prep, the NEBNext Poly(A) mRNA Magnetic Isolation Module and Directional Prep kit was used. RNA isolated from cells above was quantified, and prepared in […] of each sample in 50 μl of nuclease-free water. This protocol may be run in microfuge tubes or in a 96-well plate.
Standard QC were applied (read integrity, mapping statistics, library complexity, fragment bias) to remove unsatisfactory samples. […] Log 2 fold change and significance values were computed using PME count data (with replicates explicitly modeled versus pan-experiment controls), median ratio normalized, using maximum likelihood estimation rather than maximum a posteriori, and disabling the use of Cook's distance cutoff when determining acceptable adjusted p-values. […] RNA-seq signals were also normalized by read depth and visualized using the UCSC browser.
To identify small molecules that modulate target gene expression, primary human hepatocytes were prepared as a monoculture, and at least one small molecule compound was applied to the cells.
RNA-seq was performed to determine the effects of the compounds on the expression of the target genes in hepatocytes. Fold change was calculated by dividing the level of expression in the cell system that had been perturbed by the level of expression in an unperturbed system. Changes in expression having a p-value ≤0.05 were considered significant.
Significance was defined as an FPKM ≥1, a log 2(fold change) ≥0.5, and a q-value of ≤0.05 for all targets except for CPOX.

For experiment [2], the system named is ANGPTL3. In words: RNA-seq of ANGPTL3 expression in compound-treated primary human hepatocytes. The format is cell-based. As to conditions: additional compounds (Table 13), linear fold change. As to the method: as §1, §2, §3, §4, §5, §6
All pass filter reads from each sample were mapped against the human genome (assembly GRCh38/GCA_000001405.15 “no alt” analysis set merged with hs38d1/GCA_000786075.2) using two pass mapping via STAR version 2.5.3a (alignment parameters alignIntronMin=20; alignIntronMax=1000000; outFilterMismatchNmax=999; outFilterMismatchNoverLmax=0.05; outFilterType=BySJout; outFilterMultimapNmax=20; alignSJoverhangMin=8; alignSJDBoverhangMin=1; alignMatesGapMax=1000000) (Dobin et al., Bioinformatics (2012) 29(1):15-21). Genomic alignments were converted to transcriptome alignments based on reference transcript annotations from the Human GENCODE Gene Set release 24 (Harrow et al., Genome Res. (2012) 22(9): 1760-1774). Using unique and multimapped transcriptomic alignments, gene-level abundance estimates were computed using RSEM version 1.3.0 (Li and Dewey, BMC Bioinformatics (2011) 12:323) in a strand-aware manner, and including confidence interval sampling calculations, to arrive at posterior mean estimates (PME) of abundances (counts and normalized FPKM—fragments per kilobase of exon per million mapped fragments) from the underlying Bayesian model. Standard QC were applied (read integrity, mapping statistics, library complexity, fragment bias) to remove unsatisfactory samples.

Turning to `CNC(=O)c1ccc(N2C(=S)N(c3cnc(C#N)c(C(F)(F)F)c3)C(=O)C23CCC3)cc1F` [ARN-509], the “UGT1A1 Fold Change (Log2)” value in experiment [1] is given as 1.16 Log2.

Regarding `Cc1cc(Nc2nc(N[C@@H](C)c3ncc(F)cn3)ncc2Cl)[nH]n1` [AZD1480], the “UGT1A1 Fold Change (Log2)” value in experiment [1] stood at 0.93 Log2.

With `C[C@@H]1COCCN1c1cc(C2([S@](C)(=N)=O)CC2)nc(-c2cc[nH]c3nccc2-3)n1` [AZD6738], in experiment [1], the “UGT1A1 Fold Change (Log2)” value is 1.03 Log2.

Regarding `O=C1Nc2cc(Br)ccc2/C1=C1/Nc2ccccc2/C1=N\O` [BIO], the “UGT1A1 Fold Change (Log2)” value in experiment [1] stood at 0.62 Log2.

With `Cc1ccc(-n2nc(C(C)(C)C)cc2NC(=O)Nc2ccc(OCCN3CCOCC3)c3ccccc23)cc1` [BIRB 796], the “UGT1A1 Fold Change (Log2)” value in experiment [1] is 1.04 Log2.

Regarding `C[C@@]1(C(=O)Nc2ccc(F)nc2)CCCN1c1nc(Nc2cc(C3CC3)n[nH]2)c2cccn2n1` [BMS-754807], in experiment [1], the “UGT1A1 Fold Change (Log2)” value amounted to 1.33 Log2.

Consider `C=C(c1ccc(C(=O)O)cc1)c1cc2c(cc1C)C(C)(C)CCC2(C)C` [Bexarotene], for which the “UGT1A1 Fold Change (Log2)” value in experiment [1] came to 1.29 Log2.

For the molecule `C[C@H]1COC2=C1C(=O)C(=O)c1c2ccc2c1CCCC2(C)C` [Cryptotanshinone], in experiment [1], the “UGT1A1 Fold Change (Log2)” value was 0.93 Log2.

With `Cc1nc(Nc2ncc(C(=O)Nc3c(C)cccc3Cl)s2)cc(N2CCN(CCO)CC2)n1` [Dasatinib], the “UGT1A1 Fold Change (Log2)” value in experiment [1] worked out at 0.67 Log2.

Regarding `CC[C@@](C)(Nc1ccnc(-c2c[nH]c3ncccc23)n1)C(=O)NCC(F)(F)F` [Decernotinib], the “UGT1A1 Fold Change (Log2)” value in experiment [1] is on record as 0.58 Log2.

Take `c1cc(-c2cnn3cc(-c4ccc(OCCN5CCCCC5)cc4)cnc23)ccn1` [Dorsomorphin]: the “UGT1A1 Fold Change (Log2)” value in experiment [1] is recorded as 0.57 Log2.

As to `C=C1/C(=C\C=C2/CCC[C@]3(C)[C@@H]([C@H](C)/C=C/C=C/C(O)(CC)CC)CC[C@@H]23)C[C@@H](O)C[C@@H]1O` [EB1089], the “UGT1A1 Fold Change (Log2)” value in experiment [1] was 0.88 Log2.

Take `Cc1cc(C)c2c(c1)[C@@H](N(Cc1cc(C(F)(F)F)cc(C(F)(F)F)c1)c1nnn(C)n1)CCCN2C[C@H]1CC[C@H](C(=O)O)CC1` [Evacetrapib]: in experiment [1], the “UGT1A1 Fold Change (Log2)” value was 0.78 Log2.

Take `CCn1c(=O)c(-c2ccc(-c3cncs3)cc2Cl)cc2cnc(Nc3ccc(N4CCN(C)CC4)cc3)nc21` [FRAX597]: the “UGT1A1 Fold Change (Log2)” value in experiment [1] was found to be 0.61 Log2.

As to `OCCn1cc(-c2ccc3c(c2)CC/C3=N\O)c(-c2ccncc2)n1` [GDC-0879], in experiment [1], the “UGT1A1 Fold Change (Log2)” value is listed as 0.55 Log2.

Take `CC(C)c1onc(-c2c(Cl)cccc2Cl)c1COc1ccc(/C=C/c2cccc(C(=O)O)c2)c(Cl)c1` [GW4064]: the “UGT1A1 Fold Change (Log2)” value in experiment [1] came out at 0.92 Log2.

As for `CCC1=C(C)CN(C(=O)NCCc2ccc(S(=O)(=O)NC(=O)N[C@H]3CC[C@H](C)CC3)cc2)C1=O` [Glimepiride], the “UGT1A1 Fold Change (Log2)” value in experiment [1] is 0.96 Log2.

For the molecule `Cc1ccc2nc(NC(=O)CSc3nc4c(c(=O)n3-c3ccccc3)SCC4)sc2c1` [IWP-2], the “UGT1A1 Fold Change (Log2)” value in experiment [1] came out at 0.64 Log2.

As for `Cn1cc(-c2ccc3nnc(C(F)(F)c4ccc5ncccc5c4)n3n2)cn1` [JNJ-38877605], the “UGT1A1 Fold Change (Log2)” value in experiment [1] turned out to be 1.09 Log2.

As to `O=C(O)c1ccccc1C(=O)Nc1ccc(-c2ccccc2)cc1` [Kartogenin], in experiment [1], the “UGT1A1 Fold Change (Log2)” value turned out to be 2.24 Log2.

With `CC(=O)c1cccc(-c2cccc(-c3ccn(CCN4CCOCC4)n3)c2)c1` [LRH-1 antagonist], in experiment [1], the “UGT1A1 Fold Change (Log2)” value was 0.91 Log2.

Take `Cn1cc(-c2ccc(F)c(C(F)(F)F)c2)nc1C1CCN(c2ncnc3[nH]ncc23)CC1` [LY2584702]: the “UGT1A1 Fold Change (Log2)” value in experiment [1] stood at 0.76 Log2.

Regarding `Cc1ccc(C(=O)OCc2ccc([C@@H](CN)C(=O)Nc3ccc4cnccc4c3)cc2)c(C)c1` [Netarsudil], in experiment [1], the “UGT1A1 Fold Change (Log2)” value is reported as 0.85 Log2.

With `COc1ccc2[nH]c([S+]([O-])Cc3ncc(C)c(OC)c3C)nc2c1` (stereo not shown) [Omeprazole], the “UGT1A1 Fold Change (Log2)” value in experiment [1] turned out to be 1.09 Log2.

As for `COc1cc2c(cc1OC)-c1c(OC)c(OC)cc3ccnc(c13)C2=O` [Oxoglaucine], the “UGT1A1 Fold Change (Log2)” value in experiment [1] was determined as 0.83 Log2.

Regarding `CNC(=O)c1ccccc1Nc1cc(Nc2ccc(N3CCOCC3)cc2OC)ncc1C(F)(F)F` [PND-1186], the “UGT1A1 Fold Change (Log2)” value in experiment [1] is listed as 0.90 Log2.

In the case of `CC(C)(C(=O)NCC(F)(F)C(F)(F)F)C(=O)N[C@@H]1C(=O)Nc2ccccc2-c2ccccc21` [RO4929097], the “UGT1A1 Fold Change (Log2)” value in experiment [1] came out at 1.06 Log2.

For the molecule `CCCn1c(=O)c2[nH]c(C34CC5CC(CC3C5)C4)nc2n(CCC)c1=O` [Rolofylline (KW-3902), Rolofylline], the “UGT1A1 Fold Change (Log2)” value in experiment [1] is on record as 0.66 Log2.

In the case of `CC(C)[C@H](O)C(=O)N[C@@H](C)C(=O)N[C@@H]1C(=O)N(C)CCc2ccccc21` [Semagacestat], the “UGT1A1 Fold Change (Log2)” value in experiment [1] came out at 1.01 Log2.

In the case of `CCn1c(=O)c(-c2cc[nH]n2)cc2c(C)nc(N)nc21` [Voxtalisib (XL765, SAR245409), Voxtalisib], in experiment [2], the “ANGPTL3-LINEAR FOLD CHANGE” value is recorded as 0.4175.

As to `COCCn1c2c([n+](Cc3cnccn3)c1C)C(=O)c1ccccc1C2=O` [YM155 (Sepantronium Bromide), Sepantronium Bromide], the “ANGPTL3-LINEAR FOLD CHANGE” value in experiment [2] worked out at 0.3487.

For the molecule `COc1cc(C(=O)NS(=O)(=O)c2ccccc2C)ccc1Cc1cn(C)c2ccc(NC(=O)OC3CCCC3)cc12` [Zafirlukast], the “ANGPTL3-LINEAR FOLD CHANGE” value in experiment [2] is 0.4506.

As for BAM7, in experiment [1], the “UGT1A1 Fold Change (Log2)” value is on record as 1.66 Log2.

Regarding Pifithrin-a, the “UGT1A1 Fold Change (Log2)” value in experiment [1] turned out to be 1.44 Log2.

With meBIO, the “UGT1A1 Fold Change (Log2)” value in experiment [1] amounted to 1.98 Log2.

B1: Anti mullerian hormone: TGF-beta activator (protein, UniProt P03971 452-560, looked up)
Muellerian-inhibiting factor: SAGATAADGPCALRELSVDLRAERSVLIPETYQANNCQGVCGWPQSDRNPRYGNHVVLLLKMQVRGAALARPPCCVPTAYAGKLLISLSEERISAHHVPNMVATECGCR
As for B1, in experiment [1], the “UGT1A1 Fold Change (Log2)” value turned out to be 0.59 Log2.

B2: Wnt3a: FRIZZLED activator (protein, UniProt P56704 19-352, looked up)
Protein Wnt-3a: SYPIWWSLAVGPQYSSLGSQPILCASIPGLVPKQLRFCRNYVEIMPSVAEGIKIGIQECQHQFRGRRWNCTTVHDSLAIFGPVLDKATRESAFVHAIASAGVAFAVTRSCAEGTAAICGCSSRHQGSPGKGWKWGGCSEDIEFGGMVSREFADARENRPDARSAMNRHNNEAGRQAIASHMHLKCKCHGLSGSCEVKTCWWSQPDFRAIGDFLKDKYDSASEMVVEKHRESRGWVETLRPRYTYFKVPTERDLVYYEASPNFCEPNPETGSFGTRDRTCNVSSHGIDGCDLLCCGRGHNARAERRREKCRCVFHWCCYVSCQECTRVYDVHTCK
B2: the “UGT1A1 Fold Change (Log2)” value in experiment [1] is 0.59 Log2.
